Converted amounts (≈) assume the structure as drawn. “And” between values parts separate entries of the source, which are not always exact repeats. Equal entries are not always repeated. Structures can show the parent of a compound that is named as a salt. Where two headings read alike, the source gives them in different places.
Legend:
[1] = system: Plasmodium falciparum K1 strain; assay: In vitro anti-plasmodial assay (micro test), growth inhibition of P. falciparum K1; type: cell-based; details: for IC50: Plasmodium falciparum, read-out: IC50 Plasmodium falciparum K1; for Result Plasmodium falciparum K1: activity class from IC50, K1 strain
Method: Briefly, this procedure involved preparing 5 mg/mL stock solutions of each compound in dimethyl sulfoxide (DMSO). The stock solutions were diluted to provide test solutions having concentrations in the range 0.13-100 μg/mL. Test solutions were transferred to 96-well test plates containing parasitized red blood cells with initial 2% haematocrit and 1% parasitaemia. Each sample was evaluated in duplicate and the test plate was incubated for 48 h at 37°C. After incubation, quantification of parasites was achieved by optical microscopy on blood smears from each well [27].

[2] = system: Plasmodium berghei NK65 strain; assay: Peters 4-day suppressive test in infected BALB/c mice; type: in vivo, Plasmodium berghei in BALB/c mice
Method: Adult BALB/c mice (22 ± 3 g weight) were used for the in vivo anti-malarial tests and received water and food ad libitum. In vivo tests were performed using ‘Guidelines for Ethical Conduct in The Care and Use of Animals of the National Institute for Amazon Research (INPA)’.
Limonoids 3 and 4 were assayed for in vivo anti-malarial activity in the Peters 4-day suppressive test against the Plasmodium berghei NK65 strain in BALB/c female mice, each inoculated with 1 × 10^5 parasitized red blood cells. The mice were randomly divided into groups of five individuals and individual […] evaluation of parasitaemia versus controls (negative control groups were treated with 2% DMSO vehicle and positive control groups with chloroquine) on days 5 and 7 following an established procedure. Mortality was monitored in all groups for four weeks after inoculation. Two independent in vivo experiments were performed.

MRC-5 human fibroblasts = assay: Cytotoxicity assay (AlamarBlue) on MRC-5 human fibroblasts; type: cell-based
Method: The MRC-5 cell line of human fibroblasts was grown in Dulbecco’s Modified Eagle’s Medium (DMEM) supplemented with 10% fetal bovine serum, 2 mM glutamine, 100 μg/mL streptomycin and 100 U/mL penicillin, and incubated at 37°C with a 5% atmosphere of CO2. For assays, the cells were plated in 96-well plates (2.5 × 10^4 cells/well) and the AlamarBlue™ assay was performed using a previously described procedure. After incubation for 24 h, compounds 1-5 were individually dissolved in DMSO and the resulting solutions were diluted in culture medium. The resulting dilute solutions of each sample were added to wells at final (well) concentrations of 1.56-100 μg/mL. Control groups had final well concentrations of 0.1% DMSO. The plates were further incubated for 48 h. 3 h before the end of the incubation period, AlamarBlue™ (10 μL) was added to each well. The fluorescent signal was monitored with a multiplate reader using 530-560 nm excitation and 590 nm emission wavelengths.

[3] = system: FCR-3 strain of P. falciparum; design: method as in doi:10.1016/j.tet.2011.12.076; details: read-out: IC50 against the FCR-3 strain of P. falciparum; cited from earlier work
[4] = system: W2 strain of P. falciparum; details: cited from earlier work
[5] = system: K1 and FCR-3 strains of P. falciparum; details: earlier studies; read-out: IC50 against the K1 and FCR-3 strains of P. falciparum; cited from earlier work
P. berghei strain ANKA = details: cited from earlier work
[6] = system: W2, D6 and FCR-3 strains of P. falciparum; design: method as in doi:10.1016/j.tet.2011.12.076, PMID 9134742, doi:10.1111/j.1744-7348.2003.tb00279.x; details: range over strains; read-out: IC50 against W2, D6 and FCR-3 strains of P. falciparum; cited from earlier work
[7] = design: method as in PMID 12570769; details: cited from earlier work
P. falciparum D6 = system: P. falciparum D6; design: method as in PMID 9134742; details: cited from earlier work
Plasmodium vinckei = system: Plasmodium vinckei; design: method as in PMID 23433124; details: cited from earlier work
[8] = MRC5, MRC-5, 48 h, read-out: IC50 Human fibroblasts MRC-5
[9] = 50 mg/kg/day, vs untreated controls
[10] = 100 mg/kg/day, vs untreated controls

**Q.** With `CCN(CC)CCCC(C)Nc1ccnc2cc(Cl)ccc12` (stereo not drawn) [chloroquine diphosphate, reference compound] as the compound, how does the IC50 ([1]; K1, 48 h) read?
**A.** 0.33 µM

**Q.** What about the “Result Plasmodium falciparum K1” value [1] of the same compound?
**A.** A (0.1 < IC50 ≤ 5 μM = active (A))

**Q.** What about the “Average survival time ± SD Oral” value ([2]; 5 mg/kg/day) of the same compound?
**A.** >40 days

**Q.** And the “% Parasite inhibition Oral 5th day” value ([2]; 5 mg/kg/day)?
**A.** 100%

**Q.** And the “% Parasite inhibition Oral 7th day” value ([2]; 5 mg/kg/day)?
**A.** 98%

**Q.** And the “Average survival time ± SD Subcutaneous” value ([2]; 5 mg/kg/day)?
**A.** >40 days

**Q.** What about the “% Parasite inhibition Subcutaneous 5th day” value ([2]; 5 mg/kg/day) of the same compound?
**A.** 99%

**Q.** What about the “% Parasite inhibition Subcutaneous 7th day” value ([2]; 5 mg/kg/day) of the same compound?
**A.** 99%

**Q.** Which IC50 ([1]; K1 strain, 48 h incubation) does the source give for `CC(=O)O[C@@H]1C2C(C)(C)C(=O)C=C[C@]2(C)C2CC[C@@]3(C)[C@H](c4ccoc4)C(=O)[C@H]4O[C@]43[C@]2(C)[C@@H]1OC(C)=O` (stereo partly drawn) [compound 1, 6α-acetoxyepoxyazadiradione] here?
**A.** 15.4 µM

**Q.** And the “Result Plasmodium falciparum K1” value [1]?
**A.** MA (5 < IC50 ≤ 20 μM = moderately active (MA))

**Q.** What about the IC50 (MRC-5 human fibroblasts; [8]) of the same compound?
**A.** > 191 µM

**Q.** Which IC50 ([1]; K1 strain, 48 h incubation) does the source give for `C=C1[C@@H]([C@@]2(C)C=CC(=O)C(C)(C)[C@@H]2CC(=O)OC)CC[C@@]2(C)[C@H](c3ccoc3)OC(=O)[C@H]3O[C@]132` [compound 2, andirobin] here?
**A.** 15.3 µM

**Q.** And the “Result Plasmodium falciparum K1” value [1]?
**A.** MA (5 < IC50 ≤ 20 μM = moderately active (MA))

**Q.** What about the IC50 (MRC-5 human fibroblasts; [8]) of the same compound?
**A.** > 203 µM

**Q.** What does the source list for `CC(=O)O[C@@H]1C2C(C)(C)C(=O)C=C[C@]2(C)C2CC[C@@]3(C)[C@H](c4ccoc4)OC(=O)[C@H]4O[C@]43[C@]2(C)[C@@H]1OC(C)=O` (stereo partly drawn) [compound 3, 6α-acetoxygedunin]?
**A.** IC50 ([1]; K1 strain, 48 h incubation): 7 µM; Result Plasmodium falciparum K1 [1]: MA (5 < IC50 ≤ 20 μM = moderately active (MA)); Average survival time ± SD Oral ([2]; 50 mg/kg/day): 20 ± 3 days; % Parasite inhibition Oral 5th day [2, 9]: 40% and 40.2%; % Parasite inhibition Oral 7th day ([2]; 50 mg/kg/day): 34.7%; Average survival time ± SD Subcutaneous ([2]; 50 mg/kg/day): 21 ± 2 days; % Parasite inhibition Subcutaneous 5th day ([2]; 50 mg/kg/day): 34.4%; % Parasite inhibition Subcutaneous 7th day ([2]; 50 mg/kg/day): 16.8%; Average survival time ± SD Oral ([2]; 100 mg/kg/day): 24 ± 3 days; % Parasite inhibition Oral 5th day [2, 10]: 66% and 65.7%; % Parasite inhibition Oral 7th day ([2]; 100 mg/kg/day): 46.3%; Average survival time ± SD Subcutaneous ([2]; 100 mg/kg/day): 22 ± 4 days; % Parasite inhibition Subcutaneous 5th day ([2]; 100 mg/kg/day): 44.2%; % Parasite inhibition Subcutaneous 7th day ([2]; 100 mg/kg/day): 30.4%; IC50 [3]: 2.8 µM; IC50 (MRC-5 human fibroblasts; [8]): > 185 µM

**Q.** For `CC1(C)C(=O)C=C[C@@]2(C)C1CC(=O)[C@]1(C)C2CC[C@@]2(C)[C@H](c3ccoc3)OC(=O)[C@H]3O[C@]321` (stereo partly drawn) [compound 4, 7-deacetoxy-7-oxogedunin], which IC50 ([1]; K1, 48 h) is on record?
**A.** 20.7 µM

**Q.** What about the “Result Plasmodium falciparum K1” value [1] of the same compound?
**A.** I (IC50 > 20 μM = inactive (I))

**Q.** And the “Average survival time ± SD Oral” value ([2]; 50 mg/kg/day)?
**A.** 20 ± 2 days

**Q.** What about the “% Parasite inhibition Oral 5th day” value [2, 9] of the same compound?
**A.** 19.3%

**Q.** And the “% Parasite inhibition Oral 7th day” value ([2]; 50 mg/kg/day)?
**A.** 0%

**Q.** And the “Average survival time ± SD Subcutaneous” value ([2]; 50 mg/kg/day)?
**A.** 21 ± 4 days

**Q.** What about the “% Parasite inhibition Subcutaneous 5th day” value ([2]; 50 mg/kg/day) of the same compound?
**A.** 29.2%

**Q.** And the “% Parasite inhibition Subcutaneous 7th day” value ([2]; 50 mg/kg/day)?
**A.** 0%

**Q.** What about the “Average survival time ± SD Oral” value ([2]; 100 mg/kg/day) of the same compound?
**A.** 21 ± 3 days

**Q.** What about the “% Parasite inhibition Oral 5th day” value [2, 10] of the same compound?
**A.** 40% and 40.3%

**Q.** And the “% Parasite inhibition Oral 7th day” value ([2]; 100 mg/kg/day)?
**A.** 28.9%

**Q.** What about the “Average survival time ± SD Subcutaneous” value ([2]; 100 mg/kg/day) of the same compound?
**A.** 22 ± 2 days

**Q.** What about the “% Parasite inhibition Subcutaneous 5th day” value ([2]; 100 mg/kg/day) of the same compound?
**A.** 38.6%

**Q.** What about the “% Parasite inhibition Subcutaneous 7th day” value ([2]; 100 mg/kg/day) of the same compound?
**A.** 21.7%

**Q.** And the IC50 (MRC-5 human fibroblasts; MRC5, 48 h, read-out: IC50 Human fibroblasts MRC-5)?
**A.** 108 µM

**Q.** What about the IC50 (MRC-5 human fibroblasts; MRC5, 48 h, read-out: IC50 MRC-5 cells) of the same compound?
**A.** 47.3 µg/mL

**Q.** And the IC50 ([4]; read-out: IC50 against the W2 strain of P. falciparum)?
**A.** > 22.8 µM

**Q.** And the IC50 [5]?
**A.** 2.5 to 4.1 µM

**Q.** Which results are given for `CC1(C)C(=O)C=C[C@@]2(C)C1[C@@H](O)[C@@H](O)[C@]1(C)C2CC[C@@]2(C)[C@H](c3ccoc3)OC(=O)[C@H]3O[C@]321` (stereo partly drawn) [compound 5, 6α-hydroxydeacetylgedunin]?
**A.** IC50 ([1]; K1 strain, 48 h incubation): 5 µM; Result Plasmodium falciparum K1 [1]: A (0.1 < IC50 ≤ 5 μM = active (A)); IC50 (MRC-5 human fibroblasts; [8]): > 219 µM

**Q.** For `CC(=O)O[C@@H]1C[C@H]2C(C)(C)C(=O)C=C[C@]2(C)[C@H]2CC[C@@]3(C)[C@H](c4ccoc4)OC(=O)[C@H]4O[C@]43[C@@]21C` [compound 6, Gedunin], which “suppression of P. berghei in mice” value (P. berghei strain ANKA; oral doses of 25 or 100 mg/kg/day) is on record?
**A.** did not suppress

**Q.** What about the IC50 [6] of the same compound?
**A.** 0.4 to 2.5 µM

**Q.** With `CC(=O)O[C@@H]1C2C(C)(C)C(=O)C=C[C@]2(C)C2CC[C@@]3(C)[C@H](c4ccoc4)OC(=O)[C@H]4O[C@]43[C@]2(C)[C@@H]1O` (stereo partly drawn) [compound 7, andirolide H] as the compound, how does the IC50 [3] read?
**A.** 4 µM

**Q.** For `CC(=O)O[C@@H]1[C@H](O)C2C(C)(C)C(=O)C=C[C@]2(C)C2CC[C@@]3(C)[C@H](c4ccoc4)OC(=O)[C@H]4O[C@]43[C@@]21C` (stereo partly drawn) [compound 8, 6α-hydroxygedunin], which IC50 [3] is on record?
**A.** 90 µM

**Q.** Which results are given for `CC1(C)C(=O)C=C[C@@]2(C)C1C[C@@H](O)[C@]1(C)C2CC[C@@]2(C)[C@H](c3ccoc3)OC(=O)[C@H]3O[C@]321` (stereo partly drawn) [compound 9, 7-deacetylgedunin]?
**A.** stability under physiologic conditions found in mice ([7]; physiologic conditions): unstable; stability under simulated gastric (low pH) conditions ([7]; simulated gastric (low pH)): low stability; IC50 against W2 [4]: 1.3 µg/mL (≈ 2.95 µM); IC50 against D6 (P. falciparum D6; D6): 2.6 µg/mL (≈ 5.9 µM); times less in vitro activity than gedunin (P. falciparum D6; D6 and W2, compared to gedunin): about 65 times

**Q.** For `CO[C@@H]1CC2C(C)(C)C(=O)C=C[C@]2(C)C2CC[C@@]3(C)[C@H](c4ccoc4)OC(=O)[C@H]4O[C@]43[C@@]21C` (stereo partly drawn) [compound 10, 7-deacetyl-7-O-methylgedunin], which “inhibition of parasitaemia of P. berghei ANKA in mice” value (P. berghei strain ANKA; oral, 50 mg/kg/day) is on record?
**A.** 68%

**Q.** Which IC50 [3] does the source give for `C=C1[C@@H]2CC[C@@]3(C)[C@H](c4ccoc4)OC(=O)C[C@]13O[C@H]1CC(=O)C(C)(C)[C@H](CC(=O)OC)[C@]12C` [methyl angolensate] here?
**A.** 12 to 15 µM

**Q.** For `C=C[C@H]1C[N@@]2CC[C@H]1C[C@H]2[C@H](O)c1ccnc2ccc(OC)cc12` [quinine sulfate, reference compound], which IC50 ([1]; K1 strain, 48 h incubation) is on record?
**A.** 0.3 µM

**Q.** What about the “Result Plasmodium falciparum K1” value [1] of the same compound?
**A.** A (0.1 < IC50 ≤ 5 μM = active (A))

**Q.** Which “median effective dose (ED50)” value (P. berghei strain ANKA; mice infected with P. berghei strain ANKA) does the source give for `C=C[C@H]1C[N@@]2CC[C@H]1C[C@H]2[C@H](O)c1ccnc2ccc(OC)cc12` [quinine] here?
**A.** 34 mg/kg/day

**Q.** With `C[C@H]1[C@H](OC(=O)CCC(=O)[O-])O[C@@H]2O[C@@]3(C)CC[C@H]4[C@H](C)CC[C@@H]1[C@@]24OO3.[Na+]` [sodium artesunate] as the compound, how does the “doses at which infected mice exhibit recrudescence” value (Plasmodium vinckei) read?
**A.** < 80 mg/kg/day
